Source: ChEMBL document CHEMBL3627690, “Scaffold-Hopping and Structure-Based Discovery of Potent, Selective, And Brain Penetrant N-(1H-Pyrazol-3-yl)pyridin-2-amine Inhibitors of Dual Leucine Zipper Kinase (DLK, MAP3K12)” (J Med Chem, 2015)

What was measured:
[1] = target: T1, Mitogen-activated protein kinase kinase kinase 12 (Homo sapiens, UniProt Q12852); assay: Inhibition of N-terminally GST- tagged human DLK catalytic domain (1 to 520 amino acids) using N-terminally HIS-tagged MKK4 K131M as substrate incubated for 60 mins by TR-FRET assay
T1 sequence (Q12852 whole entry): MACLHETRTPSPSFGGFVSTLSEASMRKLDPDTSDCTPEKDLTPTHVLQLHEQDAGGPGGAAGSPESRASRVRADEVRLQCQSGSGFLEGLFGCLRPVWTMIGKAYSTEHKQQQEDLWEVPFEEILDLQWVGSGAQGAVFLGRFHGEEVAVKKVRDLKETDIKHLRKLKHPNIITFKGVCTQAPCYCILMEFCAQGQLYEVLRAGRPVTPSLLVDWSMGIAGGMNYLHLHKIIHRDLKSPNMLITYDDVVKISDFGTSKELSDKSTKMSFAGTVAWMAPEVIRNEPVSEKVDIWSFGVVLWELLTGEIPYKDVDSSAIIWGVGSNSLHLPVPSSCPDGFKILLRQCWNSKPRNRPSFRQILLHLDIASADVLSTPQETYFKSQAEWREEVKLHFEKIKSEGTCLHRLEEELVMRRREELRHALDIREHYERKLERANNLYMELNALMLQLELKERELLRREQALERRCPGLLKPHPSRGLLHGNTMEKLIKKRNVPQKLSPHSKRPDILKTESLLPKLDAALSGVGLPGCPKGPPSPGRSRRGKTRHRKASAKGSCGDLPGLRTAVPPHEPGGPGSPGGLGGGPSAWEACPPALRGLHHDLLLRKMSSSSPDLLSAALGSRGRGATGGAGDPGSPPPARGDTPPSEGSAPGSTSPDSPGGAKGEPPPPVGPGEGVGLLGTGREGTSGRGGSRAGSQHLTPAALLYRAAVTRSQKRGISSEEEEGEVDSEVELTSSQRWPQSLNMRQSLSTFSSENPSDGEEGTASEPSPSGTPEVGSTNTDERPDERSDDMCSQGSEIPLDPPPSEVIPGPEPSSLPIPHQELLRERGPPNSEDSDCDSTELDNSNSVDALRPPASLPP

human MDR1 [2] = assay: Efflux ratio of permeability across basolateral to apical over apical to basolateral side in MDCK cells transfected with human MDR1 at 5 uM by LC-MS/MS analysis; details: dog
human MDR1 [3] = assay: Permeability across apical to basolateral side in MDCK cells transfected with human MDR1 at 5 uM by LC-MS/MS analysis; details: dog
[4] = target: T1, Mitogen-activated protein kinase kinase kinase 12; assay: Inhibition of Dox inducible human DLK transfected in HEK293 cells assessed as reduction in JNK phosphorylation incubated for 5.5 hrs measured by Hoechst 33342 staining based imaging analysis; format: cell-based

N#Cc1ccnc(Nc2cn(C3CCN(C4COC4)CC3)c(C3CCCC3)n2)c1
Ki [1]: > 1.6 µM

N#Cc1ccnc(Nc2cc(C3CCN(C4COC4)CC3)n(C3CCOC3)n2)c1 (racemic)
efflux ratio at 5 µM (human MDR1 [2]): 7.6
Ki [1]: 0.378 µM
Papp A→B at 5 µM (human MDR1 [3]): 1.9 ×10⁻⁶ cm/s

CC(C)n1nc(Nc2ccc(C(F)(F)F)cn2)cc1C1CCNCC1
Ki [1]: > 1.6 µM

N#Cc1ccnc(Nc2cc(C3CCN(C4COC4)C3)n(C3CCCC3)n2)c1 (racemic)
efflux ratio at 5 µM (human MDR1 [2]): 3.7
Ki [1]: 0.025 µM
IC50 [4]: 0.632 µM
Papp A→B at 5 µM (human MDR1 [3]): 5.6 ×10⁻⁶ cm/s

CC(C)n1nc(Nc2cc(C(F)(F)F)ccn2)cc1C1CCNCC1
efflux ratio at 5 µM (human MDR1 [2]): 36
Ki [1]: 0.145 µM
Papp A→B at 5 µM (human MDR1 [3]): 0.5 ×10⁻⁶ cm/s

N#Cc1ccnc(Nc2cc(C3CCN(C4COC4)CC3)n(CC3CCC3)n2)c1
Ki [1]: 0.133 µM
IC50 [4]: 1.4 µM
Papp A→B at 5 µM (human MDR1 [3]): 1.8 ×10⁻⁶ cm/s

N#Cc1ccnc(Nc2cc(C3CCN(C4COC4)CC3)n(C3CCC(F)(F)C3)n2)c1 (racemic)
efflux ratio at 5 µM (human MDR1 [2]): 5.8
Ki [1]: 0.048 µM
IC50 [4]: 0.721 µM
Papp A→B at 5 µM (human MDR1 [3]): 4.2 ×10⁻⁶ cm/s

N#Cc1ccnc(Nc2cc(C3CN(C4COC4)C3)n(C3CCCC3)n2)c1
efflux ratio at 5 µM (human MDR1 [2]): 3.3
Ki [1]: 0.048 µM
IC50 [4]: 0.459 µM
Papp A→B at 5 µM (human MDR1 [3]): 4.9 ×10⁻⁶ cm/s

N#Cc1ccnc(Nc2cc(C3CCOC3)n(C3CCCC3)n2)c1 (racemic)
efflux ratio at 5 µM (human MDR1 [2]): 1
Ki [1]: 0.054 µM
IC50 [4]: 0.698 µM
Papp A→B at 5 µM (human MDR1 [3]): 2.7 ×10⁻⁶ cm/s

N#Cc1ccnc(Nc2nc(C3CC3)c(C3CCN(C4COC4)CC3)s2)c1
Ki [1]: 0.569 µM
IC50 [4]: 8.6 µM

CC(C)n1nc(Nc2cc(C#N)ccn2)cc1C1CCNCC1
Ki [1]: 0.16 µM

N#Cc1ccnc(Nc2cc(C3CCN(C4COC4)CC3)n(C3CCOCC3)n2)c1
efflux ratio at 5 µM (human MDR1 [2]): 15
Ki [1]: 0.593 µM
Papp A→B at 5 µM (human MDR1 [3]): 1.7 ×10⁻⁶ cm/s

CC(C)n1nc(Nc2ccc(C#N)cn2)cc1C1CCNCC1
Ki [1]: > 1.6 µM
